In general, IC50 refers to the concentration at which inhibition is half-maximal.

The results in this text go back to patent US20260258035A1, “FIVE-MEMBERED AND SIX-MEMBERED NITROGEN-CONTAINING COMPOUND, AND INTERMEDIATE, PREPARATION METHOD AND USE THEREOF” (HANGZHOU SYNRX THERAPEUTICS BIOMEDICAL TECHNOLOGY CO., LTD., priority 2022, published 2026).

The test system of experiment [1] is HCC1806. Briefly: Cell viability assay (CellTiter-Glo). The class given is cell-based, Human. The settings on record: Homo sapiens, HCC1806, 168 h, HCC1806, 7 days, CellTiter-Glo; read-out: IC50 (nM) in cell viability assay. For orientation: Cellular ATP, detected with luciferase, serves as a proxy for viable cell number.
Experiment [2] concerns the target PARG (Homo sapiens, UniProt Q86W56). Briefly: Biochemical assay (PARG, TFMU-ADPr substrate). To be noted: PARG, TFMU-ADPr substrate.

Sequence of PARG (Q86W56 whole entry): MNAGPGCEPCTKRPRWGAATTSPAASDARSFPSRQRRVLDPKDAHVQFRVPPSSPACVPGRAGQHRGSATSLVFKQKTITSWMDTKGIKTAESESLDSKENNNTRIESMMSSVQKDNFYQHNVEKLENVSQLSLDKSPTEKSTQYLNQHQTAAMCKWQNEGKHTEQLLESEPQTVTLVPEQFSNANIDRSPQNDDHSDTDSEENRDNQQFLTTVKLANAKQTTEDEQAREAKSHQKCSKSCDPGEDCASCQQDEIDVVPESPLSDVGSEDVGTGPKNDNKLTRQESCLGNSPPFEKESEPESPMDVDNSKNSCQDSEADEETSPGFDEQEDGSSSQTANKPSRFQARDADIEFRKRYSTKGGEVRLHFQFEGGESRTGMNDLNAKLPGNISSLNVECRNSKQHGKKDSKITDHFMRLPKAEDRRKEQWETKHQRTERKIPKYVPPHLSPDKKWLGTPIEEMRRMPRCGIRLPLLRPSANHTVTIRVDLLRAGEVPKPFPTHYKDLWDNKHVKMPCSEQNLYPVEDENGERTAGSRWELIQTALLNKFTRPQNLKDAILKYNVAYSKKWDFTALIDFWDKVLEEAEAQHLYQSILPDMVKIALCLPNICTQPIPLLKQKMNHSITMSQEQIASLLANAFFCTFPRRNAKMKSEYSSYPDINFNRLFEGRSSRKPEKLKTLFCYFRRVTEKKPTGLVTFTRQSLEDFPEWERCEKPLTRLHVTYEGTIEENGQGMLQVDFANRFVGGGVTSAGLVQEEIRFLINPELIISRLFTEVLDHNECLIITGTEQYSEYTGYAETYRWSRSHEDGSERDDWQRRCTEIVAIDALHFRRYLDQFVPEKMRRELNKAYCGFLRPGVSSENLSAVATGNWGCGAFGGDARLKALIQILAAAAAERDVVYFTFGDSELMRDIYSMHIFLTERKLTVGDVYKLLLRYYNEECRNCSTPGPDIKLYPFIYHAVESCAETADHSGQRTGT

In the case of `N#CC1(NS(=O)(=O)c2cc(N3CCN(C(=O)c4ccno4)CC3)c3cnc(-c4nnc(C(F)(F)F)s4)n3c2)CC1` [Example 255, N-(1-cyanocyclopropyl)-8-(4-(isoxazole-5-carbonyl)piperazin-1-yl)-3-(5-(trifluoromethyl)-1,3,4-thiadiazol-2-yl)imidazo[1,5-a]pyridine-6-sulfonamide], the IC50 was 420 nM in experiment [1] and 17.4 nM in experiment [2].
Regarding `CC#CC(C)(O)C(=O)N1CCN(c2cc(S(=O)(=O)NC3(C#N)CC3)cn3c(-c4nnc(C(F)(F)F)s4)ncc23)CC1` (stereo not drawn) [Example 256, N-(1-cyanocyclopropyl)-8-(4-(2-hydroxy-2-methylpent-3-ynoyl)piperazin-1-yl)-3-(5-(trifluoromethyl)-1,3,4-thiadiazol-2-yl)imidazo[1,5-a]pyridine-6-sulfonamide], the figures for the IC50 in experiment [1] and in experiment [2] were 80 nM and 8.71 nM, respectively.
As for `CC(O)(C#Cc1ccccc1)C(=O)N1CCN(c2cc(S(=O)(=O)NC3(C#N)CC3)cn3c(-c4nnc(C(F)(F)F)s4)ncc23)CC1` (stereo not drawn) [Example 257, N-(1-cyanocyclopropyl)-8-(4-(2-hydroxy-2-methyl-4-phenylbut-3-ynoyl)piperazin-1-yl)-3-(5-(trifluoromethyl)-1,3,4-thiadiazol-2-yl)imidazo[1,5-a]pyridine-6-sulfonamide], the IC50 was 2110 nM in experiment [1] and 191 nM in experiment [2].
On the same counts, the results for `CCC(=O)C1CCN(c2cc(S(=O)(=O)NC3(C#N)CC3)cn3c(-c4nnc(C(F)(F)F)s4)ncc23)CC1` [Example 258, N-(1-cyanocyclopropyl)-8-(4-propionylpiperidin-1-yl)-3-(5-(trifluoromethyl)-1,3,4-thiadiazol-2-yl)imidazo[1,5-a]pyridine-6-sulfonamide] are 2830 nM and 550 nM.
For `CC(CO)C(=O)N1CCN(c2cc(S(=O)(=O)NC3(C#N)CC3)cn3c(-c4nnc(C(F)(F)F)s4)ncc23)CC1` (stereo not drawn) [Example 259, N-(1-cyanocyclopropyl)-8-(4-(3-hydroxy-2-methylpropanoyl)piperazin-1-yl)-3-(5-(trifluoromethyl)-1,3,4-thiadiazol-2-yl)imidazo[1,5-a]pyridine-6-sulfonamide], in that order: 1500 nM and 45.7 nM.
`COC(C)C(=O)N1CCN(c2cc(S(=O)(=O)NC3(C#N)CC3)cn3c(-c4nnc(C(F)(F)F)s4)ncc23)CC1` (stereo not drawn) [Example 260, N-(1-cyanocyclopropyl)-8-(4-(2-methoxypropanoyl)piperazin-1-yl)-3-(5-(trifluoromethyl)-1,3,4-thiadiazol-2-yl)imidazo[1,5-a]pyridine-6-sulfonamide]: the IC50 was 250 nM in experiment [1] and 28.8 nM in experiment [2].
In the case of `N#CC1(NS(=O)(=O)c2cc(N3CCN(C(=O)C(O)C(F)(F)F)CC3)c3cnc(-c4nnc(C(F)F)s4)n3c2)CC1` (stereo not drawn) [Example 261, N-(1-cyanocyclopropyl)-3-(5-(difluoromethyl)-1,3,4-thiadiazol-2-yl)-8-(4-(3,3,3-trifluoro-2-hydroxypropanoyl)piperazin-1-yl)imidazo[1,5-a]pyridine-6-sulfonamide], the IC50 in experiment [1] worked out at 370 nM; in experiment [2], 100 nM.
For `N#CC1(NS(=O)(=O)c2cc(N3CCN(C(=O)[C@H]4CCN4)CC3)c3cnc(-c4nnc(C(F)(F)F)s4)n3c2)CC1` [Example 264, (R)-8-(4-(azetidine-2-carbonyl)piperazin-1-yl)-N-(1-cyanocyclopropyl)-3-(5-(trifluoromethyl)-1,3,4-thiadiazol-2-yl)imidazo[1,5-a]pyridine-6-sulfonamide], in that order: 6640 nM and 75.9 nM.
With `N#CC1(NS(=O)(=O)c2cc(N3CCN(C(=O)[C@H]4CCCN4)CC3)c3cnc(-c4nnc(C(F)(F)F)s4)n3c2)CC1` [Example 265, (R)-N-(1-cyanocyclopropyl)-8-(4-prolylpiperazin-1-yl)-3-(5-(trifluoromethyl)-1,3,4-thiadiazol-2-yl)imidazo[1,5-a]pyridine-6-sulfonamide], the IC50 in experiment [1] is 8000 nM; in experiment [2] it was 158 nM.
